target: T1, JNK1α1 (Homo sapiens, UniProt P45983); assay: Coupled spectrophotometric (PK/LDH) JNK1α1 assay: % inhibition and Ki determination; assay type: biochemical; conditions: JNK-1
T1 construct: catalytic domain containing amino acids 1-364 and N-terminal hexahistidine tag; hexahistidine (His6) (N); made in house; host or cells: E. coli BL21 (DE3)
Experimental: % Inhibition and Ki Determination
A coupled spectrophotometric assay, coupling JNK1α1 activity to the oxidation of β-NADH to NAD+ through the action of pyruvate kinase (PK) and lactic dehydrogenase (LDH), was used to determine the potency (percent inhibition at 1 or 10 μM or Ki) of compounds against JNK1α1 (Genbank Accession Number: L26318). […] The reaction was monitored by following the decrease in absorbance at 340 nm. The initial reaction rate was determined by the slope of the change in absorbance. To calculate percent inhibition the rate of the reaction in the presence of 1 or 10 μM compound was compared to the rate of the reaction with only DMSO multiplied by 100 percent. Note, the background rate of the above reaction in the presence of 10 μM PHA-00738186 was subtracted from all rates. […] Y=(−X+Eo−(Ki*(1+A/Km))+((X−Eo+(Ki*(1+A/Km)))^2+4*Eo*(Ki*(1+A/Km)))^0.5)*(Vm*A/(Km+A)/(2*Eo)) Formula: • Parameters: Eo, Ki, A, Km, Vo • Y is initial reaction velocity; • X is inhibitor concentration; • A is [ATP]; • Ki is inhibition constant; • Vm is Vmax; • Eo is total (initial) enzyme concentration; • Km is ATP Km;
The compounds were prepared in 100% DMSO at a 40× concentration. For percent inhibition experiments this would be 400 or 40 μM for 10 and 1 μM final concentration, respectively. For the Ki determination 3× serial dilutions were made starting at 4 mM (100 μM at 1×) in DMSO. A total of 11 concentrations were used for the analysis. The compounds were added to the reaction plate first. Next, a solution containing the HEPES, MgCl2, DTT, peptide substrate, NADH, PEP, PK/LDH enzyme, and JNK1α1—364nHis enzyme was added to the assay plate. The plate was incubated at room temperature for 15 minutes. Then the plate was warmed to 30° C. for 5 minutes. The reaction was initiated with the addition of ATP. The reaction was run in a plate reader at 30° C. for 20 minutes with absorbance readings made about every 10 seconds.
The column with “#” heading refers to compound number as exemplified in the Examples section. The column with “Ki” heading refers to Ki (in nM). The column with “% Inhibition” heading refers to percent inhibition of JNK-1 at 1 μM or 10 μM (in %) unless otherwise stated. ND refers to no data was taken.

T1 sequence (P45983 1-364): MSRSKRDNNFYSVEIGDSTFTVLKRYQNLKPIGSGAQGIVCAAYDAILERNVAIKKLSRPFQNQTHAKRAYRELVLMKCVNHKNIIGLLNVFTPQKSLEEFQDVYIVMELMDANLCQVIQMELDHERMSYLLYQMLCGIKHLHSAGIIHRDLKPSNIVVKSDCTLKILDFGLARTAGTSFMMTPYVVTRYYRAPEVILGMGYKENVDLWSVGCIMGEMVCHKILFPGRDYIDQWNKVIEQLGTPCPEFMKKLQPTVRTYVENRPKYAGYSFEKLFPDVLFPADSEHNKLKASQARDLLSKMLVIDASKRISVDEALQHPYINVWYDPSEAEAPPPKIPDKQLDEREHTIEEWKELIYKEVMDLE

Ki	Structure (SMILES)
22 nM	O=C(CCc1cncnc1)Nc1cc2cc(-c3cn[nH]c3)ccc2cn1 [Example 29, N-[6-(1H-pyrazol-4-yl)isoquinolin-3-yl]-3-pyrimidin-5-ylpropanamide]
18 nM	O=C(Cn1cc(-c2ccccn2)nn1)Nc1cc2cc(-c3cn[nH]c3)ccc2cn1 [Example 30, N-[6-(1H-pyrazol-4-yl)isoquinolin-3-yl]-2-(4-pyridin-2-yl-1H-1,2,3-triazol-1-yl)acetamide]
3 nM	CC(C)(C)OC(=O)NC(CC(=O)Nc1cc2cc(-c3cn[nH]c3)ccc2cn1)c1c(F)cccc1F (centres unmarked) [Example 31, tert-butyl (1-(2,6-difluorophenyl)-3-oxo-3-{[6-(1H-pyrazol-4-yl)isoquinolin-3-yl]amino}propyl)carbamate]
7 nM	O=C(Cc1c(F)cccc1C(F)(F)F)Nc1cc2cc(-c3cn[nH]c3)ccc2cn1 [Example 33, N-[6-(1H-pyrazol-4-yl)isoquinolin-3-yl]-2-[2-(trifluoromethyl-6-fluoro)phenyl]acetamide]
8 nM	O=C(CNC(=O)C1(c2ccccc2)CC1)Nc1cc2cc(-c3cn[nH]c3)ccc2cn1 [Example 35, N-(2-oxo-2-{[6-(1H-pyrazol-4-yl)isoquinolin-3-yl]amino)ethyl)-1-phenylcyclopropanecarboxamide]
7 nM	O=C(CCc1ccc(C(F)(F)F)cc1)Nc1cc2cc(-c3cn[nH]c3)ccc2cn1 [Example 39, N-[6-(1H-pyrazol-4-yl)isoquinolin-3-yl]-3-[4-(trifluoromethyl)phenyl]propanamide]
8 nM	CN(C)C(=O)CCC(=O)Nc1cc2cc(-c3cn[nH]c3)ccc2cn1 [Example 40, N,N-dimethyl-N′-[6-(1H-pyrazol-4-yl)isoquinolin-3-yl]succinamide]
14 nM	COc1ccc(CCCC(=O)Nc2cc3cc(-c4cn[nH]c4)ccc3cn2)cc1 [Example 41, 4-(4-methoxyphenyl)-N-[6-(1H-pyrazol-4-yl)isoquinolin-3-yl]butanamide]
5 nM	O=C(CCc1cccc(C(F)(F)F)c1)Nc1cc2cc(-c3cn[nH]c3)ccc2cn1 [Example 42, N-[6-(1H-pyrazol-4-yl)isoquinolin-3-yl]-3-[3-(trifluoromethyl)phenyl]propanamide]
8 nM	Cc1cnc(C(=O)NCC(=O)Nc2cc3cc(-c4cn[nH]c4)ccc3cn2)cn1 [Example 43, 5-methyl-N-(2-oxo-2-{[6-(1H-pyrazol-4-yl)isoquinolin-3-yl]amino}ethyl)pyrazine-2-carboxamide]
11 nM	O=C(CCc1ccc(F)cc1)Nc1cc2cc(-c3cn[nH]c3)ccc2cn1 [Example 44, 3-(4-fluorophenyl)-N-[6-(1H-pyrazol-4-yl)isoquinolin-3-yl]propanamide]
21 nM	O=C(Cc1ccc(C(F)(F)F)cc1)Nc1cc2cc(-c3cn[nH]c3)ccc2cn1 [Example 45, N-[6-(1H-pyrazol-4-yl)isoquinolin-3-yl]-2-[4-(trifluoromethyl)phenyl]acetamide]
15 nM	O=C(Cn1cnnn1)Nc1cc2cc(-c3cn[nH]c3)ccc2cn1 [Example 48, N-[6-(1H-pyrazol-4-yl)isoquinolin-3-yl]-2-(1H-tetrazol-1-yl)acetamide]
3 nM	O=C(COCc1ccccc1)Nc1cc2cc(-c3cn[nH]c3)ccc2cn1 [Example 49, 2-(benzyloxy)-N-[6-(1H-pyrazol-4-yl)isoquinolin-3-yl]acetamide]
3 nM	CC(C)c1ccc(OCC(=O)Nc2cc3cc(-c4cn[nH]c4)ccc3cn2)cc1 [Example 50, 2-(4-isopropylphenoxy)-N-[6-(1H-pyrazol-4-yl)isoquinolin-3-yl]acetamide]
8 nM	Cc1oc(-c2ccccc2)nc1CC(=O)Nc1cc2cc(-c3cn[nH]c3)ccc2cn1 [Example 51, 2-(5-methyl-2-phenyl-1,3-oxazal-4-yl)-N-[6-(1H-pyrazol-4-yl)isoquinolin-3-yl]acetamide]
15 nM	Cn1c(=O)c2c(ncn2CC(=O)Nc2cc3cc(-c4cn[nH]c4)ccc3cn2)n(C)c1=O [Example 52, 2-(1,3-dimethyl-2,6-dioxo-1,2,3,6-tetrahydro-7H-purin-7-yl)-N-[6-(1H-pyrazol-4-yl)isoquinolin-3-yl]acetamide]
21 nM	COc1ccccc1CC(=O)Nc1cc2cc(-c3cn[nH]c3)ccc2cn1 [Example 53, 2-(2-methoxyphenyl)-N-[6-(1H-pyrazol-4-yl)isoquinolin-3-yl]acetamide]
17 nM	O=C(CNC(=O)c1ccc(O)c(Cl)c1)Nc1cc2cc(-c3cn[nH]c3)ccc2cn1 [Example 56, 3-chloro-4-hydroxy-N-(2-oxo-2-{[6-(1H-pyrazol-4-yl)isoquinolin-3-yl]amino}ethyl)benzamide]
4 nM	CC(C)[C@@H]1CC[C@@H](C)C[C@H]1OCC(=O)Nc1cc2cc(-c3cn[nH]c3)ccc2cn1 [Example 57, 2-{[(1R,2S,5R)-2-isopropyl-5-methylcyclohexyl]oxy}-N-[6-(1H-pyrazol-4-yl)isoquinolin-3-yl]acetamide]

The next lines start with the compound.

Structure (SMILES)	Ki
O=C(COc1cccc(-c2cnccn2)c1)Nc1cc2cc(-c3cn[nH]c3)ccc2cn1 [Example 32, 2-(3-pyrazin-2-ylphenoxy)-N-[6-(1H-pyrazol-4-yl)isoquinolin-3-yl]acetamide]	8 nM
O=C(CN1N=C(c2ccccc2)CCC1=O)Nc1cc2cc(-c3cn[nH]c3)ccc2cn1 [Example 34, 2-(6-oxo-3-phenyl-5,6-dihydropyridazin-1(4H)-yl)-N-[6-(1H-pyrazol-4-yl)isoquinolin-3-yl]acetamide]	17 nM
CC(C)(C)OC(=O)N1C[C@H](C(=O)Nc2cc3cc(-c4cn[nH]c4)ccc3cn2)[C@@H](c2ccccc2)C1 [Example 36]	8 nM
O=C(Cn1nc(C(F)(F)F)c2c1CCCC2)Nc1cc2cc(-c3cn[nH]c3)ccc2cn1 [Example 37, N-[6-(1H-pyrazol-4-yl)isoquinolin-3-yl]-2-[3-(trifluoromethyl)-4,5,6,7-tetrahydro-1H-indazol-1-yl]acetamide]	2 nM
O=C(Nc1cc2cc(-c3cn[nH]c3)ccc2cn1)C1COc2ccccc2C1 (centres unmarked) [Example 38, N-[6-(1H-pyrazol-4-yl)isoquinolin-3-yl]chromane-3-carboxamide]	14 nM
Cc1sc(-c2ccccc2)nc1CC(=O)Nc1cc2cc(-c3cn[nH]c3)ccc2cn1 [Example 46, 2-(5-methyl-2-phenyl-1,3-thiazol-4-yl)-N-[6-(1H-pyrazol-4-yl)isoquinolin-3-yl]acetamide]	5 nM
COc1ccc2c(c1)CCC2C(=O)Nc1cc2cc(-c3cn[nH]c3)ccc2cn1 (centres unmarked) [Example 47, 5-methoxy-N-[6-(1H-pyrazol-4-yl)isoquinolin-3-yl]indane-1-carboxamide]	> 50 nM
O=C(Nc1cc2cc(-c3cn[nH]c3)ccc2cn1)[C@H]1C[C@@H]1c1ccccc1 [Example 54, (1S,2S)-2-phenyl-N-[6-(1H-pyrazol-4-yl)isoquinolin-3-yl]cyclopropanecarboxamide]	8 nM
O=C(CC(c1ccccc1)c1ccccc1)Nc1cc2cc(-c3cn[nH]c3)ccc2cn1 [Example 55, 3,3-diphenyl-N-[6-(1H-pyrazol-4-yl)isoquinolin-3-yl]propanamide]	5 nM
CNC(=O)c1ccc2cnc(N[C@H]3CC[C@H](O)CC3)nc2c1 [Example 58, 2-[(trans-4-hydroxycyclohexyl)amino]-N-methylquinazoline-7-carboxamide]	261 nM
CN(C)C(=O)c1ccc2cnc(N[C@H]3CC[C@H](O)CC3)nc2c1 [Example 59, 2-[(trans-4-hydroxycyclohexyl)amino]-N,N-dimethylquinazoline-7-carboxamide]	4340 nM
O=C(NC1CCS(=O)(=O)C1)c1ccc2cnc(N[C@H]3CC[C@H](O)CC3)nc2c1 (stereo partly drawn) [Example 60, N-(1,1-dioxidotetrahydro-3-thienyl)-2-[(trans-4-hydroxycyclohexyl)amino]quinazoline-7-carboxamide]	157 nM
O=C(NCCN1CCOCC1)c1ccc2cnc(N[C@H]3CC[C@H](O)CC3)nc2c1 [Example 61, 2-[(trans-4-hydroxycyclohexyl)amino]-N-(2-morpholin-4-ylethyl)quinazoline-7-carboxamide]	525 nM
O=C(NCc1ccccc1)c1ccc2cnc(N[C@H]3CC[C@H](O)CC3)nc2c1 [Example 62, N-benzyl-2-[(trans-4-hydroxycyclohexyl)amino]quinazoline-7-carboxamide]	432 nM
O=C(NCCc1ccccc1)c1ccc2cnc(N[C@H]3CC[C@H](O)CC3)nc2c1 [Example 63, 2-[(trans-4-hydroxycyclohexyl)amino]-N-(2-phenylethyl)quinazoline-7-carboxamide]	460 nM

From patent US7998978B2 (Pfizer Inc., priority 2006, dated 2011)
